Data taken from ChEMBL document CHEMBL5223089, “Cyclosporin Structure and Permeability: From A to Z and Beyond” (J Med Chem, 2021).

tested on: not listed separately; experiment: Permeability of compound by PAMP assay; assay type: ADME; conditions: not told; read-out: permeability

Compared with `C/C=C/C[C@@H](C)[C@@H](O)[C@H]1C(=O)N[C@@H](CC)C(=O)N(C)CC(=O)N[C@@H](CC(C)C)C(=O)N[C@@H](C(C)C)C(=O)N(C)[C@@H](CC(C)C)C(=O)N[C@@H](C)C(=O)N[C@H](C)C(=O)N(C)[C@@H](CC(C)C)C(=O)N(C)[C@@H](CC(C)C)C(=O)N(C)[C@@H](C(C)C)C(=O)N1C`, `C/C=C/C[C@@H](C)[C@@H](O)[C@H]1C(=O)N[C@@H](CC)C(=O)N(C)CC(=O)N[C@@H](CC(C)C)C(=O)N[C@@H](C(C)C)C(=O)N[C@@H](CC(C)C)C(=O)N[C@@H](C)C(=O)N[C@H](C)C(=O)N(C)[C@@H](CC(C)C)C(=O)N(C)[C@@H](CC(C)C)C(=O)N(C)[C@@H](C(C)C)C(=O)N1C` is higher in Papp: 25 nm/s for the first, 41 nm/s for the second.

Going from `C/C=C/C[C@@H](C)[C@@H](O)[C@H]1C(=O)N[C@@H]([C@@H](C)O)C(=O)N(C)CC(=O)N(C)[C@@H](CC(C)C)C(=O)N[C@@H](C(C)C)C(=O)N(C)[C@@H](CC(C)C)C(=O)N[C@@H](C)C(=O)N[C@H](C)C(=O)N(C)[C@@H](CC(C)C)C(=O)N(C)[C@@H](CC(C)C)C(=O)N(C)[C@@H](C(C)C)C(=O)N1C` to `C/C=C/C[C@@H](C)[C@@H](O)[C@H]1C(=O)N[C@@H](C(C)C)C(=O)N(C)CC(=O)N(C)[C@@H](CC(C)C)C(=O)N[C@@H](C(C)C)C(=O)N(C)[C@@H](CC(C)C)C(=O)N[C@@H](C)C(=O)N[C@H](C)C(=O)N(C)[C@@H](CC(C)C)C(=O)N(C)[C@@H](CC(C)C)C(=O)N(C)[C@@H](C(C)C)C(=O)N1C`, the Papp rises from 28 nm/s to 44 nm/s.

First: C/C=C/C[C@@H](C)[C@@H](O)[C@H]1C(=O)N[C@@H](C)C(=O)N(C)CC(=O)N(C)[C@@H](CC(C)C)C(=O)N[C@@H](C(C)C)C(=O)N(C)[C@@H](CC(C)C)C(=O)N[C@@H](C)C(=O)N[C@H](C)C(=O)N(C)[C@@H](CC(C)C)C(=O)N(C)[C@@H](CC(C)C)C(=O)N(C)[C@@H](C(C)C)C(=O)N1C
Second: C/C=C/C[C@@H](C)[C@@H](OC(C)=O)[C@H]1C(=O)N[C@@H](CC)C(=O)N(C)CC(=O)N(C)[C@@H](CC(C)C)C(=O)N[C@@H](C(C)C)C(=O)N(C)[C@@H](CC(C)C)C(=O)N[C@@H](C)C(=O)N[C@H](C)C(=O)N(C)[C@@H](CC(C)C)C(=O)N(C)[C@@H](CC(C)C)C(=O)N(C)[C@@H](C(C)C)C(=O)N1C
The Papp of the first is higher: 79 nm/s for the first, 33 nm/s for the second.

Work on `C/C=C/C[C@@H](C)[C@@H](O)[C@H]1C(=O)N[C@@H](CC)C(=O)N(C)CC(=O)N(C)[C@@H](CC(C)C)C(=O)N[C@@H](C(C)C)C(=O)N(C)[C@@H](CC(C)C)C(=O)N[C@@H](C)C(=O)N[C@H](C)C(=O)N(C)[C@@H](CC(C)C)C(=O)N(C)[C@@H](CC(C)C)C(=O)N[C@@H](C(C)C)C(=O)N1C` yielded a Papp of 4.2 nm/s.

species on record: Homo sapiens; experiment: Binding affinity to mCherry labelled that cyclophilin (unknown origin) relative to control; conditions: not given

With `C/C=C/C[C@@H](C)[C@@H](O)[C@H]1C(=O)N[C@@H](CC)C(=O)N(C)CC(=O)N(C)[C@@H](C(C)C)C(=O)N[C@@H](C(C)C)C(=O)N(C)[C@@H](CC(C)C)C(=O)N[C@@H](C)C(=O)N[C@H](C)C(=O)N(C)[C@@H](CC(C)C)C(=O)N(C)[C@@H](CC(C)C)C(=O)N(C)[C@@H](C(C)C)C(=O)N1C` the Activity was 126%.

species on record: Homo sapiens; experiment: Binding affinity to mCherry labelled that cyclophilin (unknown origin) assessed as fold change; conditions: not given

Work on `C/C=C/C[C@@H](C)[C@@H](O)[C@H]1C(=O)N[C@@H](CC)C(=O)N(C)CC(=O)N(C)[C@@H](C(C)C)C(=O)N[C@@H](C(C)C)C(=O)N(C)[C@@H](CC(C)C)C(=O)N[C@@H](C)C(=O)N[C@H](C)C(=O)N(C)[C@@H](CC(C)C)C(=O)N(C)[C@@H](CC(C)C)C(=O)N(C)[C@@H](C(C)C)C(=O)N1C` yielded a fold change (FC) of 2.
